Assays:
[1] = target: Protein kinase C theta type (Homo sapiens) (UniProt Q04759); test: Inhibition of PKCtheta (unknown origin) at 1 uM
[2] = target: Death-associated protein kinase 1 (Homo sapiens) (UniProt P53355); test: Inhibition of DAPK1 (unknown origin) at 1 uM
[3] = target: Insulin receptor (Homo sapiens) (UniProt P06213); test: Inhibition of InsR (unknown origin) at 1 uM
[4] = target: Dual specificity mitogen-activated protein kinase kinase 1 (Homo sapiens) (UniProt Q02750); test: Inhibition of MEK1 (unknown origin) at 1 uM
[5] = target: Myosin light chain kinase, smooth muscle (Homo sapiens) (UniProt Q15746); test: Inhibition of MYLK(smMLCK) (unknown origin) at 1 uM
[6] = target: Vascular endothelial growth factor receptor 3 (Homo sapiens) (UniProt P35916); test: Inhibition of Flt4 (unknown origin) at 1 uM
[7] = target: Sphingosine kinase 1 (Homo sapiens) (UniProt Q9NYA1); test: Inhibition of SPHK1 (unknown origin) at 1 uM
[8] = target: Mitogen-activated protein kinase kinase kinase 10 (Homo sapiens) (UniProt Q02779); test: Inhibition of MLK2 (unknown origin) at 1 uM
Salmonella typhimurium = test: Genotoxicity in Salmonella typhimurium TA98 by Ames test in presence of S9 fraction; assay type: toxicity, organism-based; settings: salmonella enterica subsp. enterica serovar typhimurium
[9] = target: G protein-coupled receptor kinase 5 (Homo sapiens) (UniProt P34947); test: Inhibition of GRK5 (unknown origin) at 1 uM
[10] = target: Serine/threonine-protein kinase PLK1 (Homo sapiens) (UniProt P53350); test: Inhibition of PLK1 (unknown origin) at 1 uM
Monocyte = test: Inhibition of IC-induced TNF-alpha release in human monocytes
[11] = target: SRSF protein kinase 1 (Homo sapiens) (UniProt Q96SB4); test: Inhibition of SRPK1 (unknown origin) at 1 uM
[12] = target: BDNF/NT-3 growth factors receptor (Homo sapiens) (UniProt Q16620); test: Inhibition of TrkB (unknown origin) at 1 uM
[13] = target: Vascular endothelial growth factor receptor 1 (Homo sapiens) (UniProt P17948); test: Inhibition of Flt1 (unknown origin) at 1 uM
[14] = target: Serine/threonine-protein kinase Nek4 (Homo sapiens) (UniProt P51957); test: Inhibition of NEK4 (unknown origin) at 1 uM
[15] = target: Homeodomain-interacting protein kinase 1 (Homo sapiens) (UniProt Q86Z02); test: Inhibition of HIPK1 (unknown origin) at 1 uM
[16] = target: DNA-dependent protein kinase catalytic subunit (Homo sapiens) (UniProt P78527); test: Inhibition of DNA-PK (unknown origin) at 1 uM
[17] = target: Tyrosine-protein kinase CSK (Homo sapiens) (UniProt P41240); test: Inhibition of CSK (unknown origin) at 1 uM
[18] = target: cAMP-dependent protein kinase catalytic subunit PRKX (Homo sapiens) (UniProt P51817); test: Inhibition of PrKX (unknown origin) at 1 uM
[19] = target: Myotonin-protein kinase (Homo sapiens) (UniProt Q09013); test: Inhibition of DMPK (unknown origin) at 1 uM
[20] = target: Angiopoietin-1 receptor (Homo sapiens) (UniProt Q02763); test: Inhibition of Tie2 (unknown origin) at 1 uM
[21] = target: Tyrosine-protein kinase Lyn (Homo sapiens) (UniProt P07948); test: Inhibition of LYN (unknown origin) at 1 uM
[22] = target: Tyrosine-protein kinase Srms (Homo sapiens) (UniProt Q9H3Y6); test: Inhibition of Srm (unknown origin) at 1 uM
[23] = target: Mitogen-activated protein kinase 10 (Homo sapiens) (UniProt P53779); test: Inhibition of JNK3 (unknown origin) at 1 uM
[24] = target: CDK9/cyclin T1 (Homo sapiens) (UniProt O60563+P50750); test: Inhibition of CDK9/cyclinT1 (unknown origin) at 1 uM; assay type: protein-complex assay
[25] = target: Insulin receptor-related protein (Homo sapiens) (UniProt P14616); test: Inhibition of IRR (unknown origin) at 1 uM
[26] = target: Vascular endothelial growth factor receptor 2 (Homo sapiens) (UniProt P35968); test: Inhibition of KDR (unknown origin) at 1 uM
[27] = target: MAP kinase-activated protein kinase 2 (Homo sapiens) (UniProt P49137); test: Inhibition of MAPKAPK2 (unknown origin) at 1 uM
[28] = target: Serine/threonine-protein kinase PLK3 (Homo sapiens) (UniProt Q9H4B4); test: Inhibition of PLK3 (unknown origin) at 1 uM
[29] = target: CDK8/Cyclin C (Homo sapiens) (UniProt P49336+P24863); test: Inhibition of CDK8/cyclinC (unknown origin) at 1 uM; assay type: protein-complex assay
[30] = target: Tyrosine-protein kinase Tec (Homo sapiens) (UniProt P42680); test: Inhibition of TEC (unknown origin) at 1 uM
[31] = target: Mitogen-activated protein kinase 12 (Homo sapiens) (UniProt P53778); test: Inhibition of p38 gamma (unknown origin) at 1 uM
[32] = target: Casein kinase I isoform delta (Homo sapiens) (UniProt P48730); test: Inhibition of CK1 delta (unknown origin) at 1 uM
[33] = target: Ribosomal protein S6 kinase alpha-2 (Homo sapiens) (UniProt Q15349); test: Inhibition of Rsk3 (unknown origin) at 1 uM
[34] = target: Aurora kinase A (Homo sapiens) (UniProt O14965); test: Inhibition of AuroraA (unknown origin) at 1 uM
[35] = target: Mitogen-activated protein kinase kinase kinase 9 (Homo sapiens) (UniProt P80192); test: Inhibition of MLK1 (unknown origin) at 1 uM
[36] = target: Dual specificity tyrosine-phosphorylation-regulated kinase 4 (Homo sapiens) (UniProt Q9NR20); test: Inhibition of DYRK4 (unknown origin) at 1 uM
[37] = target: Serine/threonine-protein kinase PAK 6 (Homo sapiens) (UniProt Q9NQU5); test: Inhibition of PAK6 (unknown origin) at 1 uM
[38] = target: Serine/threonine-protein kinase Sgk1 (Homo sapiens) (UniProt O00141); test: Inhibition of SGK1 (unknown origin) at 1 uM
[39] = target: Serine/threonine-protein kinase 4 (Homo sapiens) (UniProt Q13043); test: Inhibition of MST1 (unknown origin) at 1 uM
[40] = target: Fibroblast growth factor receptor 1 (Homo sapiens) (UniProt P11362); test: Inhibition of FGFR1 (unknown origin) at 1 uM
[41] = target: Tyrosine-protein kinase FRK (Homo sapiens) (UniProt P42685); test: Inhibition of Frk (unknown origin) at 1 uM
[42] = target: Tyrosine-protein kinase SYK (Homo sapiens) (UniProt P43405); test: Inhibition of Syk (unknown origin) at 1 uM
[43] = target: MAP kinase-interacting serine/threonine-protein kinase 2 (Homo sapiens) (UniProt Q9HBH9); test: Inhibition of MKNK2 (unknown origin) at 1 uM

Chain of BDNF/NT-3 growth factors receptor (Homo sapiens) (Q16620 32-822 limits assumed): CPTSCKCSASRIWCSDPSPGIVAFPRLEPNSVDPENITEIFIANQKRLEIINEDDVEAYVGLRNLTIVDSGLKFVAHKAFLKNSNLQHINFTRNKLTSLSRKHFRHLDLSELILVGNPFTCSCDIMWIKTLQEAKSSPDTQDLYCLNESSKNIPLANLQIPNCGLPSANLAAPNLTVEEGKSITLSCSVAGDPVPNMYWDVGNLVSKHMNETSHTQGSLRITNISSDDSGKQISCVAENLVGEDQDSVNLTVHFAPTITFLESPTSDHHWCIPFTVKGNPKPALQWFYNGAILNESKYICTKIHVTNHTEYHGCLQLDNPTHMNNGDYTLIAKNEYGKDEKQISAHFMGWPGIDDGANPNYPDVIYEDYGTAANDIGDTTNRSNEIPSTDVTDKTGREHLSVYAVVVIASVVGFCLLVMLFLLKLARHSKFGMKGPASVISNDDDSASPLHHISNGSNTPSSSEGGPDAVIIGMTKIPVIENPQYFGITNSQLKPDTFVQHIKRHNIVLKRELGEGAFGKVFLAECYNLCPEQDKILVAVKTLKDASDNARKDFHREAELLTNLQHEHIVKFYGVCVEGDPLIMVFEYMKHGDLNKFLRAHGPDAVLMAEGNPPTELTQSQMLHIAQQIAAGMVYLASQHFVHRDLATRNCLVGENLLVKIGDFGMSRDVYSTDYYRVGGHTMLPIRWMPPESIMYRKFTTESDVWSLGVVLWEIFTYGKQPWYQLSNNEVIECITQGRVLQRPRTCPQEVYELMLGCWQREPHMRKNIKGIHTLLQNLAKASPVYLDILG
Chain of Homeodomain-interacting protein kinase 1 (Homo sapiens) (Q86Z02 whole entry, looked up): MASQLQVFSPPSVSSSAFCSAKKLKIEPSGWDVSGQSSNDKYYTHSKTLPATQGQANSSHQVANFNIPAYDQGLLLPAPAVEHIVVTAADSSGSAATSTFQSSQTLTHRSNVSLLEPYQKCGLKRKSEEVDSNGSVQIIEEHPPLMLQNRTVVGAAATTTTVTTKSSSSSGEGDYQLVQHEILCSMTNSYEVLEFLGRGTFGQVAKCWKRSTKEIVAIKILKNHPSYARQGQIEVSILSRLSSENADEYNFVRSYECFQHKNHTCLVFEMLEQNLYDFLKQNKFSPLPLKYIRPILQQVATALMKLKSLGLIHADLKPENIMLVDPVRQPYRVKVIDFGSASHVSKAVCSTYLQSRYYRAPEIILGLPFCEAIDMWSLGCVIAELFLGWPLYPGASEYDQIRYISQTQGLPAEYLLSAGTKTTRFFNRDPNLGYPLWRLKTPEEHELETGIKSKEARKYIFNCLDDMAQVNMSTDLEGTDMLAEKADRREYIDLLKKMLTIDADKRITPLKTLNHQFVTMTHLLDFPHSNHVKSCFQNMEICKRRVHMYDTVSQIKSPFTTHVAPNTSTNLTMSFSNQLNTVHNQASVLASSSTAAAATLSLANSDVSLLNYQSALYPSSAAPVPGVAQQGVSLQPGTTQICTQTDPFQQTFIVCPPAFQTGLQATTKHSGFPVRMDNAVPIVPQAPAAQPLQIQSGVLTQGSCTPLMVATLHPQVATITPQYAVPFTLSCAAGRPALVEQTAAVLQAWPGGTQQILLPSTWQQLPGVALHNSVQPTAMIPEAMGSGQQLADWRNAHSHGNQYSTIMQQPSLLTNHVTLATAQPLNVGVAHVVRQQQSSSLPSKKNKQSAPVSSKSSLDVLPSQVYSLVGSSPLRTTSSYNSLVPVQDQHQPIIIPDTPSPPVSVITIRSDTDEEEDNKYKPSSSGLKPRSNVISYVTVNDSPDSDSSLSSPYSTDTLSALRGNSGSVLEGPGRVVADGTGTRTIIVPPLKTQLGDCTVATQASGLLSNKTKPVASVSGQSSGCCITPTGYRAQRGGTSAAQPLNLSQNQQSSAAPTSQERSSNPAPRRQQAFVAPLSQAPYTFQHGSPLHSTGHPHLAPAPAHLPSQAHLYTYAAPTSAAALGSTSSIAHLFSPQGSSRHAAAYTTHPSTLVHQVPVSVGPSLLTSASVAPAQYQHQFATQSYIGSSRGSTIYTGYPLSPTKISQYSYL
Chain of Serine/threonine-protein kinase Sgk1 (Homo sapiens) (O00141 whole entry): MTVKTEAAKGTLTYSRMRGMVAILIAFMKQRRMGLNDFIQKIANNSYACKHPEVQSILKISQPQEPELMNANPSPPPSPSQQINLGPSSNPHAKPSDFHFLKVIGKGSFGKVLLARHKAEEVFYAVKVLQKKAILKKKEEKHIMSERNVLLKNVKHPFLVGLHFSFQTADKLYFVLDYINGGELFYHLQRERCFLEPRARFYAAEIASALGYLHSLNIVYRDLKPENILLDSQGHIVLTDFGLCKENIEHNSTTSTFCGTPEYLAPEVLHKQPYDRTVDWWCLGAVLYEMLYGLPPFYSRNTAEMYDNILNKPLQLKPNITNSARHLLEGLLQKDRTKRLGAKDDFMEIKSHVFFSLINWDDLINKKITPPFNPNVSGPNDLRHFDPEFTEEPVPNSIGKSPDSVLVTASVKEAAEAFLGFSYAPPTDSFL
Chain of Serine/threonine-protein kinase PLK3 (Homo sapiens) (Q9H4B4 whole entry, looked up): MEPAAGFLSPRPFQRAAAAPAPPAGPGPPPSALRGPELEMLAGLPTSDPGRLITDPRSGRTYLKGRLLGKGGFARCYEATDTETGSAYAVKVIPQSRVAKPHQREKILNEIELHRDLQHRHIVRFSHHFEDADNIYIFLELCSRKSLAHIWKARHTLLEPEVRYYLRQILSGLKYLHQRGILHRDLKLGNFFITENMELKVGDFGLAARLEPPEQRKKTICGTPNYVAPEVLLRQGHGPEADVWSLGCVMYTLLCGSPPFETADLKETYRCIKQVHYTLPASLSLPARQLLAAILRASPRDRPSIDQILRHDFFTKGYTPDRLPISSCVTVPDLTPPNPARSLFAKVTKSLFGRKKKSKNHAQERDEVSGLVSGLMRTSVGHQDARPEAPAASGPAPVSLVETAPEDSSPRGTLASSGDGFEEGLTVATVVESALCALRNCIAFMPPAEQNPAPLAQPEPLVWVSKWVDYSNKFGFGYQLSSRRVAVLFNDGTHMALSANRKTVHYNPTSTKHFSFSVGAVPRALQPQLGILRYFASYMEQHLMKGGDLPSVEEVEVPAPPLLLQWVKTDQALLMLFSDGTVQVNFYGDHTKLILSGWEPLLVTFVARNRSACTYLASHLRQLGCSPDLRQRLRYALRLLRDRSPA
Chain of Tyrosine-protein kinase Lyn (Homo sapiens) (P07948 2-512 limits assumed): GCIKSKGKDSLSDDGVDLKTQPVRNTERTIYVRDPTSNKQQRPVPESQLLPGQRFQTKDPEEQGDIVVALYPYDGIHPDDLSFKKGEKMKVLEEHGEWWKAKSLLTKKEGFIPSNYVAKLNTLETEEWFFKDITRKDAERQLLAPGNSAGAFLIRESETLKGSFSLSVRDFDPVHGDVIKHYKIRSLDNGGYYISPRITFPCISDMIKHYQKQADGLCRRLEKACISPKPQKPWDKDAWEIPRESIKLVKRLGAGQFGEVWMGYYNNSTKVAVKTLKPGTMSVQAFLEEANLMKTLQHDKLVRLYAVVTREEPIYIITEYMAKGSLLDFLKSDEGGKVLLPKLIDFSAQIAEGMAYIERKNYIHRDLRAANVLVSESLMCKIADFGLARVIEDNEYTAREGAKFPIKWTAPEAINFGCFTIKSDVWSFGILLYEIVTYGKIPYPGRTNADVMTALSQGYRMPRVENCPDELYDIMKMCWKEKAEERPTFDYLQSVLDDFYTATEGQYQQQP
Chain of Tyrosine-protein kinase Tec (Homo sapiens) (P42680 whole entry): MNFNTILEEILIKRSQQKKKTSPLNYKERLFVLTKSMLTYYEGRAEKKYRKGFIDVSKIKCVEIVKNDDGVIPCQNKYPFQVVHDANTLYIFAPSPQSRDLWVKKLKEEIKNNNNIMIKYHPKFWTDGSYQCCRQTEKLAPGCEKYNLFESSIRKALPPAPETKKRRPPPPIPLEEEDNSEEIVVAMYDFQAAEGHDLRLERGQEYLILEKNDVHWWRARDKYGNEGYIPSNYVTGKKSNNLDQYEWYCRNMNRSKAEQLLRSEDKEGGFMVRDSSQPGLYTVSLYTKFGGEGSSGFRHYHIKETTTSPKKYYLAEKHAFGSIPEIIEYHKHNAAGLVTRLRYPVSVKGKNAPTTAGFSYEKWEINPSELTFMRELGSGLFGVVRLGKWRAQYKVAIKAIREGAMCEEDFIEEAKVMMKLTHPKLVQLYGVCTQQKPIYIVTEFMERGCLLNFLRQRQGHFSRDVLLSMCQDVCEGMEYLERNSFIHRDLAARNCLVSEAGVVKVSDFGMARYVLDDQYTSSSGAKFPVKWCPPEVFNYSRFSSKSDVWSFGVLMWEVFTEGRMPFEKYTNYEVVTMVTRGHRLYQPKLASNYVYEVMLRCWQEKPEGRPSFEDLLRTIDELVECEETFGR
Chain of Tyrosine-protein kinase FRK (Homo sapiens) (P42685 whole entry): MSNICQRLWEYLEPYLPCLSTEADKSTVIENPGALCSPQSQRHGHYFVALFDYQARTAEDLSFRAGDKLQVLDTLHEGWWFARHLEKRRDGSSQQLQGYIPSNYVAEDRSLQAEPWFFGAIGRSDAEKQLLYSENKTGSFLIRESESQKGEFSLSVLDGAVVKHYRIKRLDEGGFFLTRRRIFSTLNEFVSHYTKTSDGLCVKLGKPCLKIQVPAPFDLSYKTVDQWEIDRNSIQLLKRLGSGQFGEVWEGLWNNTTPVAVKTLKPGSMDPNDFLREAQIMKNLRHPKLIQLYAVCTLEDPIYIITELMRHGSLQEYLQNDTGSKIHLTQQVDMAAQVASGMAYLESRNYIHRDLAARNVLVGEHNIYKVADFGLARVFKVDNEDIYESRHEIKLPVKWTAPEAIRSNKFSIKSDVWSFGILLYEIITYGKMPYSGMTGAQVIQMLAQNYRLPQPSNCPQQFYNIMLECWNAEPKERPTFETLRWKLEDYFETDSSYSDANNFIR

inhibition [1]: -6.9%
inhibition [3]: 13.8%
inhibition [4]: 4.5%
inhibition [5]: -0.8%
inhibition [6]: 2.7%
inhibition [7]: 35.1%
inhibition [8]: 7.3%
inhibition [9]: 3.8%
inhibition [10]: 6%
EC50 (Monocyte): 0.037 µM
inhibition [11]: 0.6%
inhibition [12]: -3.6%
inhibition [13]: -0.7%
inhibition [14]: 1%
inhibition [15]: 0.4%
inhibition [16]: 8.5%
inhibition [17]: 5.2%
inhibition [18]: -9.9%
inhibition [19]: -3.6%
inhibition [20]: 7.4%
inhibition [21]: 23.1%
inhibition [22]: 15.7%
inhibition [23]: 10.3%
inhibition [24]: 1%
inhibition [25]: 2.3%
inhibition [26]: -2.4%
inhibition [27]: 10.8%
inhibition [28]: 14.1%
inhibition [29]: 1%
inhibition [30]: 87.9%
inhibition [31]: 6.5%
inhibition [32]: 4.7%
inhibition [33]: -0.6%
inhibition [34]: 1.1%
inhibition [35]: -7.5%
inhibition [36]: -1.1%
inhibition [37]: 1.8%
inhibition [38]: 4.6%
inhibition [39]: -2.6%
inhibition [40]: -3.1%
inhibition [41]: -0.8%
inhibition [42]: 5.6%
inhibition [43]: -0.2%
SMILES: Cc1c(-c2cc(Nc3cc4n(n3)CCN(C)C4)c(=O)[nH]n2)ccc(F)c1NC(=O)c1cc2ccccc2s1
inhibition [2]: 0.1%
Activity (Salmonella typhimurium): Non-toxic
